Biological target: T1, Recombinant human renin (Homo sapiens, UniProt P00797)
T1 construct: made in house; host or cells: Chinese Hamster Ovary cells
T1 sequence (P00797 67-406): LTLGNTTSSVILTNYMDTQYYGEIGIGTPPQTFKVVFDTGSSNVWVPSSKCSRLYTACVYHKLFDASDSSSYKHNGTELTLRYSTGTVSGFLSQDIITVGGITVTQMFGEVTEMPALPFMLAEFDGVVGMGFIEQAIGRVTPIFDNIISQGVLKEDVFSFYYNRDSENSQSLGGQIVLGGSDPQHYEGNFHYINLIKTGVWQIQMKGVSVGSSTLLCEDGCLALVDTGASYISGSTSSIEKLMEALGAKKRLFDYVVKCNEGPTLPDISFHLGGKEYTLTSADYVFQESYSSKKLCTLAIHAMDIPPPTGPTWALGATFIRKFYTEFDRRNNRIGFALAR
Assay: Renin inhibitory activity in vitro, hu-renin FRET assay
Assay type: biochemical
Protocol: Recombinant human renin (expressed in Chinese Hamster Ovary cells and purified using standard methods) at 4 nM concentration is incubated with test compound at various concentrations for 1 h at RT in 0.1 M Tris-HCl buffer, pH 7.4, containing 0.05 M NaCl, 0.5 mM EDTA and 0.05% CHAPS. Synthetic peptide substrate Arg-Glu(EDANS)-Ile-His-Pro-Phe-His-Leu-Val-Ile_His_Thr-Lys(DABCYL)-Arg9 is added to a final concentration of 2 μM and increase in fluorescence is recorded at an excitation wave-length of 340 nm and at an emission wave-length of 485 nm in a microplate spectro-fluorimeter. IC50 values are calculated from percentage of inhibition of renin activity as a function of test compound concentration (Fluorescence Resonance Energy Transfer, FRET, assay). Recombinant human renin (expressed in Chinese Hamster Ovary cells and purified using standard methods) at 1 nM concentration is incubated with test compound at various concentrations for 1.5 h at 37° C. in 0.1 M Tris/HCl pH 7.4 containing 0.05 M NaCl, 0.5 mM EDTA and 0.025% (w/v) CHAPS. Synthetic peptide substrate Ac-Ile-His-Pro-Phe-His-Leu-Val-Ile-His-Asn-Lys-[DY-505-X5] is added to a final concentration of 5 μM. The enzyme reaction is stopped by adding 6 μL of 1.0% TFA. The product of the reaction is separated by HPLC and quantified by spectrophotometric measurement at […] wave-length. IC50 values are calculated from percentage of inhibition of renin activity as a function of test compound concentration.
Renin inhibitory activity was assessed in vitro by FRET assay (as above described). Results for representative compounds of formula I are: […]

Row | Structure (SMILES) | IC50 [nM]
1 | COCCCOc1cc(C[C@@H](C[C@H](N)[C@@H](O)C[C@H](C(=O)NC2CCCOC2)C(C)C)C(C)C)ccc1OC (single isomer, unassigned) [Example 22, (2S,4S,5S,7S)-5-Amino-4-hydroxy-2-isopropyl-7-[4-methoxy-3-(3-methoxy-propoxy)-benzyl]-8-methyl-nonanoic acid [(R)- or (S)-3-(tetrahydro-pyran-3-yl)]-amide] | 2.5
2 | COCCCOc1cc(C[C@@H](C[C@H](N)[C@@H](O)C[C@H](C(=O)NC2CCN(C)CC2)C(C)C)C(C)C)ccc1OC [Example 5, (2S,4S,5S,7S)-5-Amino-4-hydroxy-2-isopropyl-7-[4-methoxy-3-(3-methoxy-propoxy)-benzyl]-8-methyl-nonanoic acid (1-methyl-piperidin-4-yl)-amide] | 3.2
3 | COCCCOc1cc(C[C@@H](C[C@H](N)[C@@H](O)C[C@H](C(=O)NCC2CCCCO2)C(C)C)C(C)C)ccc1OC (single isomer, unassigned) [Example 20, (2S,4S,5S,7S)-5-Amino-4-hydroxy-2-isopropyl-7-[4-methoxy-3-(3-methoxy-propoxy)-benzyl]-8-methyl-nonanoic acid [(R)- or (S)-1-(tetrahydro-pyran-2-yl)methyl]-amide] | 7
4 | COCCCCc1cc(C[C@@H](C[C@H](N)[C@@H](O)C[C@H](C(=O)NC2CCOCC2)C(C)C)C(C)C)ccc1OC [Example 36, (2S,4S,5S,7S)-5-Amino-4-hydroxy-2-isopropyl-7-[4-methoxy-3-(4-methoxy-butyl)-benzyl]-8-methyl-nonanoic acid (tetrahydro-pyran-4-yl)-amide] | 0.3
5 | COCCCOc1cc(C[C@@H](C[C@H](N)[C@@H](O)C[C@H](C(=O)NC[C@H]2CCCO2)C(C)C)C(C)C)ccc1C [Example 27, (2S,4S,5S,7S)-5-Amino-4-hydroxy-2-isopropyl-7-[3-(3-methoxy-propoxy)-4-methyl-benzyl]-8-methyl-nonanoic acid [(R)-1-(tetrahydro-furan-2-yl)methyl]-amide] | 0.5
6 | COCCCOc1cc(C[C@@H](C[C@H](N)[C@@H](O)C[C@H](C(=O)N[C@@H]2CCN(C)C2)C(C)C)C(C)C)ccc1OC [Example 2, (2S,4S,5S,7S)-5-Amino-4-hydroxy-2-isopropyl-7-[4-methoxy-3-(3-methoxy-propoxy)-benzyl]-8-methyl-nonanoic acid ((R)-1-methyl-pyrrolidin-3-yl)-amide] | 4
7 | COCCCOc1cc(C[C@@H](C[C@H](N)[C@@H](O)C[C@H](C(=O)NCC2CCOCC2)C(C)C)C(C)C)ccc1OC [Example 14, (2S,4S,5S,7S)-5-Amino-4-hydroxy-2-isopropyl-7-[4-methoxy-3-(3-methoxy-propoxy)-benzyl]-8-methyl-nonanoic acid (tetrahydro-pyran-4-ylmethyl)-amide] | 1.4
8 | COCCCOc1cc(C[C@@H](C[C@H](N)[C@@H](O)C[C@H](C(=O)NC[C@@H]2CCCO2)C(C)C)C(C)C)ccc1C [Example 28, (2S,4S,5S,7S)-5-Amino-4-hydroxy-2-isopropyl-7-[3-(3-methoxy-propoxy)-4-methyl-benzyl]-8-methyl-nonanoic acid [(S)-1-(tetrahydro-furan-2-yl)methyl]-amide] | 0.6
9 | COCCCOc1cc(C[C@@H](C[C@H](N)[C@@H](O)C[C@H](C(=O)NCC2CCOC2)C(C)C)C(C)C)ccc1OC (single isomer, unassigned) [Example 29, (2S,4S,5S,7S)-5-Amino-4-hydroxy-2-isopropyl-7-[4-methoxy-3-(3-methoxy-propoxy)-benzyl]-8-methyl-nonanoic acid [3(R) or 3(S)-1-(tetrahydro-furan-3-yl)methyl]-amide] | 0.4
10 | COCCCOc1cc(C[C@@H](C[C@H](N)[C@@H](O)C[C@H](C(=O)NC2CCCOC2)C(C)C)C(C)C)ccc1OC (single isomer, unassigned) [Example 23, (2S,4S,5S,7S)-5-Amino-4-hydroxy-2-isopropyl-7-[4-methoxy-3-(3-methoxy-propoxy)-benzyl]-8-methyl-nonanoic acid [(R)- or (S)-3-(tetrahydro-pyran-3-yl)]-amide] | 0.5
11 | COCCCOc1cc(C[C@@H](C[C@H](N)[C@@H](O)C[C@H](C(=O)NC[C@H]2CCCO2)C(C)C)C(C)C)ccc1OC [Example 11, (2S,4S,5S,7S)-5-Amino-4-hydroxy-2-isopropyl-7-[4-methoxy-3-(3-methoxy-propoxy)-benzyl]-8-methyl-nonanoic acid [(R)-1-(tetrahydro-furan-2-yl)methyl]-amide] | 4
12 | COCCCOc1cc(C[C@@H](C[C@H](N)[C@@H](O)C[C@H](C(=O)NC2CCOCC2)C(C)C)C(C)C)ccc1C [Example 26, (2S,4S,5S,7S)-5-Amino-4-hydroxy-2-isopropyl-7-[3-(3-methoxy-propoxy)-4-methyl-benzyl]-8-methyl-nonanoic acid (tetrahydro-pyran-4-yl)-amide] | 0.5
13 | COCCCOc1cc(C[C@@H](C[C@H](N)[C@@H](O)C[C@H](C(=O)NCc2ccoc2)C(C)C)C(C)C)ccc1OC [Example 17, (2S,4S,5S,7S)-5-Amino-4-hydroxy-2-isopropyl-7-[4-methoxy-3-(3-methoxy-propoxy)-benzyl]-8-methyl-nonanoic acid (furan-3-ylmethyl)-amide] | 2.5
14 | COCCCOc1cc(C[C@@H](C[C@H](N)[C@@H](O)C[C@H](C(=O)NCC2CCOC2)C(C)C)C(C)C)ccc1OC (single isomer, unassigned) [Example 30, (2S,4S,5S,7S)-5-Amino-4-hydroxy-2-isopropyl-7-[4-methoxy-3-(3-methoxy-propoxy)-benzyl]-8-methyl-nonanoic acid [(R) or (S)-1-(tetrahydro-furan-3-yl)methyl]-amide] | 0.8
15 | COCCCOc1cc(C[C@@H](C[C@H](N)[C@@H](O)C[C@H](C(=O)N[C@@H]2CCOC2)C(C)C)C(C)C)ccc1OC [Example 12, (2S,4S,5S,7S)-5-Amino-4-hydroxy-2-isopropyl-7-[4-methoxy-3-(3-methoxy-propoxy)-benzyl]-8-methyl-nonanoic acid ((R)-tetrahydrofuran-3-yl)-amide] | 0.7
16 | COCCCOc1cc(C[C@@H](C[C@H](N)[C@@H](O)C[C@H](C(=O)NCC2CCCCO2)C(C)C)C(C)C)ccc1OC (single isomer, unassigned) [Example 19, (2S,4S,5S,7S)-5-Amino-4-hydroxy-2-isopropyl-7-[4-methoxy-3-(3-methoxy-propoxy)-benzyl]-8-methyl-nonanoic acid [2(R) or 2(S)-1-(tetrahydro-pyran-2-yl)methyl]-amide] | 8
17 | COCCCOc1cc(C[C@@H](C[C@H](N)[C@@H](O)C[C@H](C(=O)N[C@H]2CCOC2)C(C)C)C(C)C)ccc1OC [Example 13, (2S,4S,5S,7S)-5-Amino-4-hydroxy-2-isopropyl-7-[4-methoxy-3-(3-methoxy-propoxy)-benzyl]-8-methyl-nonanoic acid ((S)-tetrahydrofuran-3-yl)-amide] | 0.2
18 | COCCCOc1cc(C[C@@H](C[C@H](N)[C@@H](O)C[C@H](C(=O)N[C@H]2CCN(C)C2)C(C)C)C(C)C)ccc1OC [Example 3, (2S,4S,5S,7S)-5-Amino-4-hydroxy-2-isopropyl-7-[4-methoxy-3-(3-methoxy-propoxy)-benzyl]-8-methyl-nonanoic acid ((S)-1-methyl-pyrrolidin-3-yl)-amide] | 0.7
19 | COCCCOc1cc(C[C@@H](C[C@H](N)[C@@H](O)C[C@H](C(=O)NC[C@@H]2CCCO2)C(C)C)C(C)C)ccc1OC [Example 10, (2S,4S,5S,7S)-5-Amino-4-hydroxy-2-isopropyl-7-[4-methoxy-3-(3-methoxy-propoxy)-benzyl]-8-methyl-nonanoic acid [(S)-1-(tetrahydro-furan-2-yl)methyl]-amide] | 3.5
20 | COCCCOc1cc(C[C@@H](C[C@H](N)[C@@H](O)C[C@H](C(=O)NC2CCOCC2)C(C)C)C(C)C)ccc1OC [Example 1, (2S,4S,5S,7S)-5-Amino-4-hydroxy-2-isopropyl-7-[4-methoxy-3-(3-methoxy-propoxy)-benzyl]-8-methyl-nonanoic acid (tetrahydro-pyran-4-yl)-amide] | 1.4
21 | COCCCOc1cc(C[C@@H](C[C@H](N)[C@@H](O)C[C@H](C(=O)NCc2ccco2)C(C)C)C(C)C)ccc1OC [Example 18, (2S,4S,5S,7S)-5-Amino-4-hydroxy-2-isopropyl-7-[4-methoxy-3-(3-methoxy-propoxy)-benzyl]-8-methyl-nonanoic acid (furan-2-ylmethyl)-amide] | 0.9

— patent US20090076062A1, “Organic Compounds” (priority 2007, published 2009)
